The values below come from PMC3021545, “Insulin Reduces Neuronal Excitability by Turning on GABAA Channels that Generate Tonic Current” (PLoS ONE, 2011).

SMILES strings stand for the structures.

For the test, the system named is T1, insulin-induced high-affinity extrasynaptic GABAA channels (α5, γ2 containing; α5βγ2) of CA1 pyramidal neurons.
T1 construct: gene Gabra5
To be noted: insulin-treated (1 nM) slices; -60 mV; ambient GABA; 20-22 °C; inverse agonist.

As usually defined, the % inhibition is the share of the control response that was lost under treatment. A lower % inhibition goes with little suppression. With `CCOC(=O)c1ncn2c1[C@@H]1CCCN1C(=O)c1cc(OC)ccc1-2` [L655, 708], the “% inhibition at 5 μM” value amounted to 85±4%.
